Tests used:
[1] = GdL-Zn dissociation constants by fluorescence (ZnAF-2F competition); format: binding; conditions: K2 in FIG. 4; Tris buffer; read-out: KD(GdLZn)
Protocol: The procedures reported by Esqueda et al were followed (Esqueda et al., 2009). Solutions containing 1 μM of ZnAF-2F, 0.05 μM ZnCl2 and 100 μM GdL sensors were prepared in TRIS buffer. Aliquots of this solution were 3-fold diluted serially 10 times by addition of a buffered solution containing the same concentration of ZnAF-2F and ZnCl2 but no agent. The fluorescence was measured in triplicate in 96 well plates (100 μL). In a similar manner solutions containing agent, ZnCl2 but no fluorescent probe, were prepared and fluorescence measured by triplicate to account for any signal coming from the agent interacting with Zn^2+. The excitation and emission wavelengths used were 492 and 514 nm, respectively. The Zn dissociation constant was determined by fitting the data to the following equations:
[formula] F is the measured corrected fluorescence. Fmin is the minimal fluorescence observed in the competition binding experiment. Fmax corresponds to the fluorescence in absence of competitor. [GdL]o is the concentration of the zinc sensor chosen. IC50 corresponds to the concentration of competitor that decreases by 50% the % F. K′D is the dissociation constant of the competitor. [FP]o is the total concentration of the fluorescent probe. KD is the dissociation constant of the fluorescent probe and Zn^2+.

HSA = molecular target: T1, HSA (Homo sapiens, UniProt P02768); assay: Proton relaxation enhancement (PRE) titrations with HSA; format: binding; conditions: for r1^c (relaxivity of the bound state): HSA-bound GdL-Zn, from PRE fit; for Kd: fitting proton relaxation enhancement data to equation (1), 20 MHz, 310 K, read-out: KD(GdLZnHSA)
T1 construct: purchased Sigma-Aldrich
Protocol: Proton relaxation enhancement (PRE) titrations were performed to evaluate the binding of these agents to HSA under conditions where the concentration of HSA was varied while the concentration of GdL and Zn^2+ (1:1) were held constant (FIG. 6). […] These types of complexes only bind to HSA-binding site 2 of subdomain IIIA, so n was assumed=1.
Affinity constants to HSA were assessed by proton relaxation enhancement (PRE) measurements according to published procedures (Martins et al., 2013a; Martins et al., 2013b) The proton relaxation rates at increasing concentrations of protein were measured with a MRS-6 NMR analyzer (20 MHz, 310 K). For the E-titration, the concentrations of GdL complex (0.1 mM) and Zn(II) (0.1 mM) were kept constant, while the protein concentration was varied from 0 to 0.6 mM.

mouse pancreas = assay: In vivo MR imaging of glucose stimulated insulin secretion (GSIS) in the mouse pancreas; set-up: species or system C57B1/6 mice; conditions: for T1-weighted MR image enhancement in pancreatic tissues and kidneys: over the first 10-15 min after injection
Text: Both phases of insulin secretion are considered essential, but the early RRP phase that is thought to be the first signal reduced during the development of type 2 diabetes (Komatsu et al., 2013; Hosker et al., 1989). In principle, both phases of insulin secretion should be detectable by MRI if enough sensor is present in the extracellular space during the time-course of these events. Biphasic GSIS was not detected by MRI in previous experiments using the first generation Zn^2+ sensors with a high affinity for Zn^2+ but we hypothesized that GSIS may be more easily detected using these second-generation agents having a much lower affinity for Zn^2+. To test this, dynamic MRI scans were collected after administering either GdL1, GdL2, GdL3 or GdL4 to C57B1/6 mice via a tail vein (0.07 mmol/kg). Nearly simultaneously with agent injection, a bolus (50 μL) of 20% w/v glucose was administered IP to stimulate secretion of insulin.
All animal experiments were performed in accordance with guidelines set by the UT Southwestern Institutional Animal Care and Use Committee (IACUC). Male C57b1/6 mice were fasted for at least 12 hours before imaging experiments. The animals were anaesthetized with isofluorane and catheterized via the tail vein. Once the animals were secured inside a 38 mm volume coil, the pancreas was positioned in the center of the 9.4 T Varian MRI scanner. Two 3D T1-weighted gradient echo pre-injection scans were obtained (TE/TR=1.69/3.34 ms, NEX8, Matrix=128×128 ×128). 70 μl of 20 mM contrast agent were injected i.v. and 50 μl of 20% w/v D-glucose were injected intraperitoneally and consecutive 3D T1-weighted scans were obtained sequentially to monitor signal enhancement in the pancreas. Identification of the pancreas was accomplished by locating the tissues surrounded by the spleen, stomach, and kidneys. A total of 3 animals were scanned per group and images were quantified and analyzed using ImageJ (National Institutes of Health, Bethesda, Md.). The signal intensities from ROIs of the tip of the pancreas were measured before, at every ˜3-4 minutes post D-glucose injection over 30 minutes total. The values were normalized to the signal intensity obtained from a water phantom placed on the mouse abdomen. Contrast enhancement was calculated using the formula
[formula] Statistical analysis was performed by comparing the mean values using a two-tailed t-test. Statistical difference was evaluated using t-scores and p-values at a 95 and 99% confidence level.

[2] = r1 relaxivity measurements (20 MHz, 0.5 T, 37° C.); format: physicochemical; conditions: 100 mM Tris buffer; for r1 0.6 mM HSA alone / r1 No Zn^2+: no Zn^2+; for r1 With Zn^2+ / r1 Zn^2+ + 0.6 mM HSA: CA:Zn = 1:1; for r1 No Zn^2+: no HSA
Protocol: Longitudinal relaxation times were measured using inversion recovery method on a MRS-6 NMR analyzer from the Institute Joz̆ef Stefan (Ljubljana, Slovenija) operating at 20 MHz. Relaxivity was determined by linear regression analysis of the relaxation rates of five solutions (0-1.0 mM). All samples were measured at 310 K using a warm air blower. Five different sample concentrations (0, 0.25, 0.5, 0.75, 1.0 mM) of gadolinium complex were made up in Tris buffer at 0.1 M and pH 7.4 to generate the relaxivity value for the free complex. ZnCl2 was then added to each of the above sample to produce a [Gd]:[Zn] ratio of 1:1. After 30 min of incubation at 310 K, T1 measurements were performed, from which the relaxivity of sensor-Zn^2+ was calculated. Finally, HSA was added to each of above sample to achieve HSA concentration of 0.6 mM. After further incubation at 310 K for 30 min, T1 of each sensor-Zn^2+-HSA adduct was measured, from which the relaxivity of sensor-Zn^2+-HSA adduct was calculated. Zinc titrations were performed with constant [GdL]=0.5 mM and increasing amounts of [Zn^2+]=0-2 mM in Tris buffer at 0.1 M and pH 7.4.

T1 sequence (P02768 25-609): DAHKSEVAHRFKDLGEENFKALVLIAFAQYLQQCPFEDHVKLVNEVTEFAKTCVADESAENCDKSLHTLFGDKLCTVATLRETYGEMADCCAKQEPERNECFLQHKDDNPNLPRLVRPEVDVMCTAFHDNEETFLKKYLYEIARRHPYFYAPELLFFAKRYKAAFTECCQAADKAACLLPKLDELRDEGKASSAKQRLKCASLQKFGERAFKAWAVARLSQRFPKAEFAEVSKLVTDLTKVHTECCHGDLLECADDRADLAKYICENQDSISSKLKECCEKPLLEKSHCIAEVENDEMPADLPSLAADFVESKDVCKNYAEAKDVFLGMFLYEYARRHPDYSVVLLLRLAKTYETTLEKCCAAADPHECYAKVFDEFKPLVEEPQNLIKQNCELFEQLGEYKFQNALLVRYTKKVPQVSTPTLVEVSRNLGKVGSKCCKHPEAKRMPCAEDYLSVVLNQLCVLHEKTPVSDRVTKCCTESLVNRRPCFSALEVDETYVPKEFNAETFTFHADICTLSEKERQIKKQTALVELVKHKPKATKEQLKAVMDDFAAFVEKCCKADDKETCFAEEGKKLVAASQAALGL

Row | SMILES | Kd [1] [µM] | r1^c (relaxivity of the bound state) (HSA) [s⁻¹ mM⁻¹] | Kd (HSA) [µM] | r1 0.6 mM HSA alone [2] [s⁻¹ mM⁻¹] | r1 With Zn^2+ [2] | r1 Zn^2+ + 0.6 mM HSA [2] | r1 No Zn^2+ [2] [s⁻¹ mM⁻¹] | T1-weighted MR image enhancement in pancreatic tissues and kidneys (mouse pancreas; 0.07 mmol/kg i.v., glucose IP) | pancreatic response at 3 minutes (FIG. 7A) (mouse pancreas; post-glucose stimulation) | dynamic images: phases of insulin secretion detected (mouse pancreas; 0.07 mmol/kg i.v., glucose IP, n=3) | Area under the curve (AUC) t=11−19 minutes post-glucose stimulation (FIG. 7C) (mouse pancreas; compared to control Gd-HPDO3A and GdL1) | enhancement profile from pancreas ROI normalized to external phantom (FIG. 7B) (mouse pancreas; mouse, in vivo) | pancreatic response at 15 minutes (FIG. 7A) (mouse pancreas; post-glucose stimulation)
1 | O=C(O)CN1CCN(CC(=O)O)CCN(CC(=O)NCCN(Cc2ccccn2)Cc2ccccn2)CCN(CC(=O)O)CC1 [GdL1] | 0.118 | 20 ± 0.5 | 48 ± 6 | 5.8 ± 0.1 | 5.2 ± 0.1^b s^−1 mM^−1 | 17.8 ± 0.5^b s^−1 mM^−1 | 4.8 ± 0.1 | significant image enhancements | enhance the pancreas |  |  |  | 
2 | O=C(O)CN1CCN(CCC(=O)NCCN(Cc2ccccn2)Cc2ccccn2)CCN(CC(=O)O)CCN(CC(=O)O)CC1 [GdL2] | 0.19 ± 0.005 | 28 ± 0.3 | 49 ± 7 | 6.5 ± 0.1 | 5.5 ± 0.1^b s^−1 mM^−1 | 19.8 ± 0.6^b s^−1 mM^−1 | 4.9 ± 0.1 | significant image enhancements |  |  |  |  | 

Second part, led by results:

Row | Kd [1] [µM] | r1^c (relaxivity of the bound state) (HSA) [s⁻¹ mM⁻¹] | Kd (HSA) [µM] | r1 0.6 mM HSA alone [2] [s⁻¹ mM⁻¹] | r1 With Zn^2+ [2] | r1 Zn^2+ + 0.6 mM HSA [2] | r1 No Zn^2+ [2] [s⁻¹ mM⁻¹] | SMILES | T1-weighted MR image enhancement in pancreatic tissues and kidneys (mouse pancreas; 0.07 mmol/kg i.v., glucose IP) | pancreatic response at 3 minutes (FIG. 7A) (mouse pancreas; post-glucose stimulation) | dynamic images: phases of insulin secretion detected (mouse pancreas; 0.07 mmol/kg i.v., glucose IP, n=3) | Area under the curve (AUC) t=11−19 minutes post-glucose stimulation (FIG. 7C) (mouse pancreas; compared to control Gd-HPDO3A and GdL1) | enhancement profile from pancreas ROI normalized to external phantom (FIG. 7B) (mouse pancreas; mouse, in vivo) | pancreatic response at 15 minutes (FIG. 7A) (mouse pancreas; post-glucose stimulation)
3 | 2.35 | 12 ± 0.3 | 55 ± 12 | 5.6 ± 0.1 | 5.1 ± 0.1^b s^−1 mM^−1 | 11.4 ± 0.3^b s^−1 mM^−1 | 4.7 ± 0.1 | O=C(O)CN1CCN(CC(=O)O)CCN(CC(=O)NCCN(CCc2ccccn2)Cc2ccccn2)CCN(CC(=O)O)CC1 [GdL4] |  | enhance the pancreas | both early phase (3-4 min) and late phase (13-17 min) insulin secretion | improved bi-phasic profile | distinct bi-phasic profile | shows second-phase enhancement
4 | 2.57 ± 0.054 | 12 ± 0.3 | 54 ± 1 | 6.3 ± 0.2 | 5.3 ± 0.1^b s^−1 mM^−1 | 10.4 ± 0.3^b s^−1 mM^−1 | 4.9 ± 0.1 | O=C(O)CN1CCN(CCC(=O)NCCN(CCc2ccccn2)Cc2ccccn2)CCN(CC(=O)O)CCN(CC(=O)O)CC1 [GdL5] |  |  |  |  |  | 
5 | 0.185 ± 0.005 | 30 ± 0.6 | 51 ± 7 | 6.9 ± 0.2 | 5.4 ± 0.1^b s^−1 mM^−1 | 21.5 ± 0.7^b s^−1 mM^−1 | 5.0 ± 0.1 | O=C(O)CCN1CCN(CC(=O)O)CCN(CC(=O)NCCN(Cc2ccccn2)Cc2ccccn2)CCN(CC(=O)O)CC1 [GdL3] | significant image enhancements |  |  |  |  | 

— US11713305B2, “Zinc sensors for in vivo imaging of beta-cell function by MRI” (The Board of Regents of the University of Texas System, priority 2017, dated 2023)
